Experiments:
[1] = tested on: reactive oxygen species (ROS); conditions: BMDMs pre-incubated with 50 μM DPI, oxLDL or oxLDL+zVAD.fmk 3 h
Experimental: Measurement of Reactive Oxygen Species (ROS). BMDMs were pre-incubated with DPI for 30 minutes followed by the cell permeant reagent 2′, 7′-dichloroflurescin diacetate (DCFDA) fluorescent dye for 1 h. Cells were then treated with oxLDL or oxLDL+zVAD.fmk and fluorescence was measured at 3 h and 24 h as per manufacturers' instructions (Abcam, ab113851).

human RIP3 promoter = conditions: RAW macrophages, 50 uM DPI pre-treatment, oxLDL 6 or 24 h
Experimental: (§1) Promoter Luciferase Assay. Luciferase reporter constructs containing the human MLKL and RIP3 promoters were purchased from SwitchGear Genomics (Carlsbad, CA). RAW264.7 (ATCC) macrophages were plated in 24-well plates in 10% FBS DMEM and transfected using Lipofectamine 2000 (Life Technologies) with MLKL-promoter or RIP3-promoter plasmids (renilla-based luciferase reporter) together with pGL3 basic (firefly-based reporter, Promega) to normalize for transfection efficiency. Twenty-four hours after transfection, cells were treated with or without 100 μg/ml oxLDL as above, for an additional 24 hours. Cells were harvested in lx passive lysis buffer and luciferase measured using the Dual Luciferase Assay (Promega) according to manufacturer's instructions. All experiments were performed in quadruplicate technical replicates at least 3 times.
(§2) Promoter Luciferase Assay. Luciferase reporter constructs containing the human MLKL and RIP3 promoters were purchased from SwitchGear Genomics (Carlsbad, CA). […] Cells were harvested in 1× passive lysis buffer and luciferase measured using the Dual Luciferase Assay (Promega) according to manufacturer's instructions. […]

human MLKL promoter = conditions: RAW macrophages, 50 uM DPI pre-treatment, oxLDL 6 or 24 h
Experimental: as §1, §2

PGAM5 = conditions: macrophages, DPI
RIP3 = conditions: BMDMs, pre-treatment with 50 μM DPI
Experimental: (§3) RNA isolation and quantitative real-time PCR. BMDMs were treated with control media with or without oxLDL or oxLDL+zVAD.fmk for the indicated time points with or without 1 h pre-treatment with 50 μM DPI. Alternatively, BMDMs were polarized to M0, M1 or M2 prior to RNA isolation, as described above. Total RNA was isolated using TRIzol reagent (Invitrogen) as per manufacturer's instructions and cDNA was synthesized using iScript Reverse Transcription kit (BioRad™). Quantitative real-time PCR was performed in triplicate using either the Sso Advanced Universal SYBR Green Supermix (Biorad) or Taqman™ Gene Expression Assay and mRNA level of target genes was normalized to HPRT or β-actin house keeping genes.
as §3, with “uM” for “μM”, “Total RNA was isolated using TRIzol reagent (Invitrogen) as per manufacturer's instructions and cDNA was synthesized using iScript Reverse Transcription kit (BioRad™).” left out, “Taqman®” for “Taqman™”

MLKL = conditions: BMDMs, pre-treatment with 50 μM DPI
Experimental: as §3
as §3, with “uM” for “μM”, “Total RNA was isolated using TRIzol reagent (Invitrogen) as per manufacturer's instructions and cDNA was synthesized using iScript Reverse Transcription kit (BioRad™).” left out, “Taqman®” for “Taqman™”

c1ccc2c(c1)[I+]c1ccccc1-2 [DPI, diphenyleneiodonium]
oxLDL-induced production of ROS (in words) [1]: inhibited | oxLDL-induced RIP3 promoter activity (in words) (human RIP3 promoter): significantly blunted | oxLDL-induced MLKL promoter activity (in words) (human MLKL promoter): significantly blunted | oxLDL-induced PGAM5 expression (in words) (PGAM5): similarly inhibited | induction of RIP3 mRNA expression by oxLDL and oxLDL+zVAD.fmk (in words) (RIP3): inhibited | induction of MLKL mRNA expression by oxLDL and oxLDL+zVAD.fmk (in words) (MLKL): inhibited
